One compound from patent US4788304A, “Phospholipase A2 inhibitors” (American Home Products Corporation, priority 1987, dated 1988) can be followed below.

The target in assay [1] is T1, human platelet PLA2 (Homo sapiens, UniProt P14555).
T1 construct: The PLA2 enriched supernatant fluid is removed and the amount of protein is determined by the Lowry method; from tissue; host or cells: expired human platelets from the blood bank (acid extract, not purified)
T1 sequence (P14555 21-144): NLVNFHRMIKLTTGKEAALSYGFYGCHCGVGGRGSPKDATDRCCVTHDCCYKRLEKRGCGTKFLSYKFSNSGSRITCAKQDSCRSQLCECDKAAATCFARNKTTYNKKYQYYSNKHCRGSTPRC
The assay can be described thus: Inhibition of cell free human platelet PLA2 (hydrolysis of [3H]-AA labelled E. coli phospholipids). Type of assay: biochemical. The note with it: 30 min. As for the experimental part: The ability of the compounds in the scope of the invention to inhibit the activity of cell free human platelet PLA2 enzyme is measured in the following in vitro assay.
E. coli, cultured to exponential growth, are sedimented for 15 minutes at 10,000 g and resuspended in sterile isotonic saline (1-3 ml). 10-25 μCi uniformly labeled [^3 H]-arachidonic acid (AA) is added to a sterile flask, evaporated by N2 and resolubilized with 0.3 ml 20% fatty acid-free bovine serum albumen (BSA). 75-100 ml of nutrient broth and 1 ml E. coli are then added to each flask and incubated for 2-3 hours at 37° C. [^3 H]-AA labelled E. coli are then sedimented, suspended in saline and added to fresh nutrient broth and incubated for 1.5 hours at 37° C. to complete [^3 H]-AA incorporation into the phospholipids. After overnight refrigeration of cultures, E. coli are again sedimented, suspended in saline and autoclaved for 15 minutes at 120° C. E. coli cultures are washed twice with saline (first wash contains 1 % BSA) and resuspended in saline. Non-labelled E. coli cultures are also prepared in the same manner. Cell number is determined by measuring the optical density at […] (3×10 cell/ml=1 O.D.). The amount of radioactivity associated with cells is determined by counting a defined volume of cell suspension. The specific activity is subsequently adjusted by adding non-labelled E. coli to yield 2-4×10 cpm per 1×10^10 E. coli.
Expired human platelets from the blood bank are centrifuged for 15 minutes at 200 g to obtain a platelet rich fraction and to remove the red blood cells. Platelets are sedimented for 15 minutes at 2500 g and the plasma is removed before adding cold 0.18N H2 SO4 (4 ml/unit). Platelets are homogenized, incubated for 1 hour at 4° C., homogenized again and centrifuged for 15 minutes at 10,000 g. The PLA2 enriched supernatant fluid is removed and the amount of protein is determined by the Lowry method. The preparation is divided into various portions and stored at -20° C.
The assay measures the hydrolysis of E. coli membrane phospholipids and the release of free [^3 H]-AA from the C-2 position of phospholipids by human platelet PLA2. To ice cold 15×100 mm test tubes, the following additions are made; 2.5×10^8 E. coli (equivalent to 5 nmol phospholipid), 5 mM Ca++, 100 mM Tris buffer (pH=7.4), 100 μg platelet extract (or an amount to produce 20-30% hydrolysis), drug or vehicle. Incubation are carried out at 37° C. in a shaking water bath for 30 minutes. The reaction is terminated by the addition of 2 volumes of tetrahydrofuran (THF) and the mixture is vortexed. Hydrolyzed [^3 H]-AA is separated from unhydrolyzed phospholipid by solid phase extraction using Bond elute NH2 columns (Analytichem Intermat.). Columns are conditioned with 0.5 ml THF followed by 0.5 ml THF:H2 O (2.0:0.1 ml v/v). Samples are loaded onto columns and hydrolyzed [^3 H]-AA is eluted with 1 ml THF:glacial acetic acid (98.0:2.0 ml v/v). The elutant is transferred to vials, 10 ml Optifluor is added and the radioactivity is determined by liquid scintillation counting.
Treatments are corrected for non-enzymatic hydrolysis by subtracting the dpms in treatments containing no enzyme. Mean [^3 H]-AA dpm is determined and a percent inhibition relative to vehicle treated samples is calculated.
The percent hydrolysis is calculated by the following equation: [formula]

The subject of assay [2] is rat carrageenan paw edema. The assay can be described thus: Rat carrageenan paw edema. The note with it: at 50 mg/kg (peroral), 1 h prior to carrageenan; 3 h. Format: in vivo, rat (Sprague-Dawley). As for the experimental part: The compounds in the scope of the invention are further tested in the rat carrageenan paw edema to determine their ability to inhibit the acute inflammatory response.
[…] male Sprague-Dawley rats, in groups of 6 animals are injected subcutaneously in the right paw with 0.1 ml of 1% carrageenan at zero time. Mercury plethysmographic readings (ml) of the paw are made at zero time and 3 hours later. Test compounds are suspended or dissolved in 0.5% methylcellulose and given perorally 1 hour prior to carrageenan administration.
The increase in paw volume (edema in ml.) produced by the carrageenan is measured. Paw edema is calculated (3 hour volume minus zero time volume), and percent inhibition of edema is determined. Unpaired Student's t-test is used to determine statistical significance.

Assay [3] has as its system AA-induced mouse ear edema. In words: Arachidonic acid (AA)-induced murine ear edema test. Format: in vivo, mouse (Swiss Webster). As to conditions: 1 mg/ear, 30 min prior to AA, measured 1 h after AA.

For `COC(=O)C1(C(=O)CCCCOc2ccc(Cl)cc2)CO1` (stereo not shown) [Example 6A, 2-[5-(4-Chlorophenoxy)-1-oxopentyl]-2-oxiranecarboxylic acid methyl ester], the inhibition at 50 µM in assay [1] (at 50 μM, pH 7.4, 37° C.) was 83.2%. Further, in assay [1] (cell free human platelet PLA2, pH 7.4, 37° C., read-out: IC50 (PLA2)), the IC50 was 10.7 µM. Further, the “% Inhibition of paw edema” value in assay [2] stood at 50%. Moreover, in assay [3], the “Mouse Ear Edema Assay, % Change from Control, TOPICAL, AA” value is -38%.

In general, inhibition refers to the change of the read-out against control, counted positive when it falls. A higher inhibition goes with strong suppression. What is called IC50 is the midpoint of a concentration-inhibition curve.
